pKi: −log10 of the molar value. Where a SMILES comes first, the peptide text is derived from it. [ ]: non-standard residue; d: D form. The star is where a group is joined. dArg(NO2) = N=C(NCCC[C@@H](N)C(=O)O)N[N+](=O)[O-]; Arg(NO2) = N=C(NCCC[C@H](N)C(=O)O)N[N+](=O)[O-]; OBn = c1ccc(CO*)cc1
Experiment: Inhibition of Neuronal Nitric oxide synthase enzyme (nNOS)

First: NC(=NCCC[C@H](N)C(=O)N[C@@H](Cc1ccccc1)C(=O)O)N[N+](=O)[O-]
Second: COC(=O)[C@H](Cc1ccccc1)NC(=O)[C@@H](N)CCCN=C(N)N[N+](=O)[O-]
The pKi of the first is 1.20 log units higher: 4.74 for the first, 3.54 for the second.

`COC(=O)[C@@H](CCCN=C(N)N[N+](=O)[O-])NC(=O)[C@H](N)Cc1ccccc1` and `COC(=O)[C@H](CCCN=C(N)N[N+](=O)[O-])NC(=O)[C@@H](N)Cc1ccccc1` are within 0.2 log units of each other in pKi: 3.40 for the first, 3.43 for the second.

`COC(=O)[C@@H](Cc1ccccc1)NC(=O)[C@@H](N)CCCN=C(N)N[N+](=O)[O-]` and `COC(=O)[C@@H](CCCN=C(N)N[N+](=O)[O-])NC(=O)[C@@H](N)Cc1ccccc1` are within 0.2 log units of each other in pKi: 4.04 for the first, 4.05 for the second.

First: NC(=NCCC[C@H](N)C(=O)N[C@@H](Cc1ccccc1)C(=O)OCc1ccccc1)N[N+](=O)[O-]
Second: NC(=NCCC[C@H](NC(=O)[C@@H](N)Cc1ccccc1)C(=O)OCc1ccccc1)N[N+](=O)[O-] (H-Phe-[Arg(NO2)]-OBn)
The pKi of the first is 0.30 log units higher: 4.26 for the first, 3.96 for the second.

Compared with `N=C(NCCC[C@@H](NC(=O)[C@H](N)Cc1ccccc1)C(=O)O)N[N+](=O)[O-]` [(2R)-2-{[(2R)-2-amino-3-phenylpropanoyl]amino}-5-{[(Z)-imino(nitroamino)methyl]amino}pentanoic acid] (H-[dF]-[dArg(NO2)]-OH), `COC(=O)[C@@H](Cc1ccccc1)NC(=O)[C@H](N)CCCNC(=N)N[N+](=O)[O-]` [D-Nitroarginine,methoxy-D-phenylalanine,with 2M of hydrochloric acid] is 0.95 log units lower in pKi: 4.77 for the first, 3.82 for the second. The first binds more tightly here.

From BindingDB's records for doi:10.1021/jm970200u (Northwestern University, 1997)
